Where “and” joins values, the source holds several entries; their conditions need not be identical. Identical values can stand only once.
Key:
[1] = target: T1, mGluR2 (Mus musculus, UniProt Q14BI2); experiment: Live-cell FRET, SNAP-m2 (VFT domain) inter-subunit sensor in HEK293T cells; conditions: for Normalized FRET response, Mean (SNAP-m2 agonist DRC): maximal responses normalized to 1mM glutamate;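 as to all read-outs here: apparent FRET efficiency from whole-membrane ROIs of single cells, corrected for donor bleed-through and background, ΔFRET as treatment minus pretreatment signal, recorded at room temperature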
T1 sequence (Q14BI2 19-872): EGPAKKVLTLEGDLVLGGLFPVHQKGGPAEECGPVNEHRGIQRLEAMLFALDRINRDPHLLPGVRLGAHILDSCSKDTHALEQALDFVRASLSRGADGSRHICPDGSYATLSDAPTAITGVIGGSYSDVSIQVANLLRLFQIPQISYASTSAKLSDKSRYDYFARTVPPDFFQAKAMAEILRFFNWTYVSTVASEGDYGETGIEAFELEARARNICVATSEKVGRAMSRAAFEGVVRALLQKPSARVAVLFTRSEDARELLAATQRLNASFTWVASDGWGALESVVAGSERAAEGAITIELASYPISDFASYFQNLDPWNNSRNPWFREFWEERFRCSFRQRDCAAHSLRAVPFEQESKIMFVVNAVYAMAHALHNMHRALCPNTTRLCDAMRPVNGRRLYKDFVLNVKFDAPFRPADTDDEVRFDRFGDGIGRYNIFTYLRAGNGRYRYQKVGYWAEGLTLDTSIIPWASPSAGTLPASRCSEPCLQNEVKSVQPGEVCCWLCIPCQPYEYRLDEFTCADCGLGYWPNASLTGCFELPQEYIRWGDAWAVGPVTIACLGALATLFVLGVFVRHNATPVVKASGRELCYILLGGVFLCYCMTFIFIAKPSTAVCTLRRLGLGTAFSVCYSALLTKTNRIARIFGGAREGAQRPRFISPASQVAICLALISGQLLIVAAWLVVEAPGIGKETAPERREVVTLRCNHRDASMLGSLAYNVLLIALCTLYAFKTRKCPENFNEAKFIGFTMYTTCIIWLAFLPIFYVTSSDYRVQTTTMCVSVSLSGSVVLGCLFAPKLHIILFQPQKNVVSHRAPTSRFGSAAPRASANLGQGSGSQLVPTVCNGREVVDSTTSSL

[2] = target: mGluR2 (Mus musculus, UniProt Q14BI2, A548F); experiment: Live-cell FRET, azi-CRD (cysteine-rich domain) sensor in HEK293T cells; conditions: for Normalized FRET response, Mean (azi-CRD agonist DRC): maximal responses normalized to 1mM glutamate
mGluR2 (Mus musculus, UniProt Q14BI2, A548F), sequence (Q14BI2 19-872 A548F): as the sequence (Q14BI2 19-872) above, with A530F counted along it

[3] = target: mGluR2 (Mus musculus, UniProt Q14BI2, INS715F); experiment: Live-cell FRET, azi-ECL2 (7TM domain, extracellular loop 2) sensor in HEK293T cells;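 also: Cy3/Cy5 click-labeled sensor, whole-membrane ROIs per cell, apparent FRET after bleed-through correction, ΔFRET as treatment minus pre-treatment signal, at room temperature, at least three biological replicates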
mGluR2 (Mus musculus, UniProt Q14BI2, INS715F), sequence (Q14BI2 with tags, fused parts or gaps INS715F): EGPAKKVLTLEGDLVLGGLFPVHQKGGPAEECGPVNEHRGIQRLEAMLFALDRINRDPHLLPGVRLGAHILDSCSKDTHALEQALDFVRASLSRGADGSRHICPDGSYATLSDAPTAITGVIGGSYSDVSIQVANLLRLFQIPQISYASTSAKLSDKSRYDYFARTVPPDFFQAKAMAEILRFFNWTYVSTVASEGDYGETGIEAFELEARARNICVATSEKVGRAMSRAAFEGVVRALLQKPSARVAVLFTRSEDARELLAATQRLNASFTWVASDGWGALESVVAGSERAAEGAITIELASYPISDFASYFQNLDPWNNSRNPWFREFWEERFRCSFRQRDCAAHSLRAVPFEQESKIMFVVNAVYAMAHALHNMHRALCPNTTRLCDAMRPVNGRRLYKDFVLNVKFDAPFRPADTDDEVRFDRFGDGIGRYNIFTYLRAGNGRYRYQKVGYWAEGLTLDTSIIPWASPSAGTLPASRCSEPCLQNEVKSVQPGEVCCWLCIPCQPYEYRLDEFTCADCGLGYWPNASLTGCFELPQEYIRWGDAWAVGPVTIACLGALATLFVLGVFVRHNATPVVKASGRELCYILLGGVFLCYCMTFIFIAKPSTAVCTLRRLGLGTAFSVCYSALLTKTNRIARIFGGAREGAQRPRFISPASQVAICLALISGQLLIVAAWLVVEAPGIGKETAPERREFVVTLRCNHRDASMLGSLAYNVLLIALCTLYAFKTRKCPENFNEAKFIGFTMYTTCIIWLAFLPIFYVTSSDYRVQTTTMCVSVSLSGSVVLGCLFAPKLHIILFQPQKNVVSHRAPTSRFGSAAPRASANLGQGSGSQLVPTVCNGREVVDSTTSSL

[4] = target: T1, mGluR2; experiment: Functional calcium imaging, SNAP-mGluR2 (no FLAG-tag) with chimeric G protein Gqo5 in HEK293T cells; format: cell-based; parameters: Full length mGluR2 construct with an amber codon (TAG) mutation of amino acid A548 (azi-CRD) or N-terminal SNAP-tag (SNAP-mGluR2); host or cells: HEK293T; conditions: for Intracellular Ca2+ response, Mean / Intracellular Ca2+ response: normalized to 1mM glutamate; for Intracellular Ca2+ response: single experiments

Emax ([1]; HEK-293T, read-out: Normalized Max ΔFRET, SNAP-m2, 20μM agonist, individual cells, normalized to 1mM glutamate): 101%
EC50 ([1]; Mean half-maximum effective concentration (EC50), SNAP-m2 sensor, orthosteric agonist alone, nM for LY379268 (footnote)): 30.6 nM
Mean max response (normalized max ΔFRET) ([1]; SNAP-m2 (VFT), agonist alone (1 mM glutamate, 100 μM DCG-IV, 20 μM LY379268, 100 μM APDC), normalized to 1 mM glutamate): 1.01
Normalized Max ΔFRET, Mean ([1]; SNAP-m2, 20μM agonist, mean of cells, normalized to 1mM glutamate): 101.061
Hill slope ([1]; SNAP-m2 sensor, orthosteric agonist alone): –1.12
Normalized FRET response, Mean (SNAP-m2 agonist DRC) ([1]; log[ligand] (M) -6): -1.011
Normalized FRET response, Mean (SNAP-m2 agonist DRC) ([1]; log[ligand] (M) -6.69897): -1.017
Normalized FRET response, Mean (SNAP-m2 agonist DRC) ([1]; log[ligand] (M) -7.1549): -0.7975
Normalized FRET response, Mean (SNAP-m2 agonist DRC) ([1]; log[ligand] (M) -7.52288): -0.6707
Normalized FRET response, Mean (SNAP-m2 agonist DRC) ([1]; log[ligand] (M) -8): -0.3677
Normalized FRET response, Mean (SNAP-m2 agonist DRC) ([1]; log[ligand] (M) -8.39794): -0.1637
Normalized FRET response, Mean (SNAP-m2 agonist DRC) ([1]; log[ligand] (M) -8.82391): -0.07424
Normalized FRET response, Mean (SNAP-m2 agonist DRC) ([1]; log[ligand] (M) -9.52288): -0.01697
Normalized FRET response, Mean (SNAP-m2 agonist DRC) ([1]; log[ligand] (M) -10): -0.0059
Normalized FRET response, Mean (SNAP-m2 agonist DRC) ([1]; log[ligand] (M) -10.699): 0
EC50 ([2]; Live-cell FRET titration EC50, azi-CRD, agonist alone, individual experiments): 12.7 nM and 14.3 nM and 9.97 nM and 8.96 nM and 10.9 nM and 13.4 nM and 14.5 nM and 16 nM and 14.4 nM and 12.2 nM and 11.3 nM and 13.2 nM and 11.7 nM and 11.4 nM and 10.4 nM and 14.2 nM and 9.03 nM and 7.75 nM
EC50 ([2]; Mean half-maximum effective concentration (EC50), azi-CRD sensor, orthosteric agonist alone, nM for LY379268 (footnote)): 12.1 nM
Hill slope ([2]; azi-CRD sensor, orthosteric agonist alone): 1.36
Mean max response (normalized max ΔFRET) ([2]; azi-CRD, agonist alone (1 mM glutamate, 100 μM DCG-IV, 20 μM LY379268, 100 μM APDC), normalized to 1 mM glutamate): 1.06
Normalized Max ΔFRET, Mean ([2]; azi-CRD, 20μM agonist, mean of cells, normalized to 1mM glutamate): 106.212
Normalized FRET response, Mean (azi-CRD agonist DRC) ([2]; log[ligand] (M) -4.69897): 1.062
Normalized FRET response, Mean (azi-CRD agonist DRC) ([2]; log[ligand] (M) -6): 1.058
Normalized FRET response, Mean (azi-CRD agonist DRC) ([2]; log[ligand] (M) -7.1549): 0.9652
Normalized FRET response, Mean (azi-CRD agonist DRC) ([2]; log[ligand] (M) -7.52288): 0.8398
Normalized FRET response, Mean (azi-CRD agonist DRC) ([2]; log[ligand] (M) -8): 0.4669
Normalized FRET response, Mean (azi-CRD agonist DRC) ([2]; log[ligand] (M) -8.39794): 0.1943
Normalized FRET response, Mean (azi-CRD agonist DRC) ([2]; log[ligand] (M) -8.82391): 0.06461
Normalized FRET response, Mean (azi-CRD agonist DRC) ([2]; log[ligand] (M) -9.52288): 0.04231
Normalized FRET response, Mean (azi-CRD agonist DRC) ([2]; log[ligand] (M) -10): 0
EC50 ([3]; EC50, live-cell FRET titration, azi-ECL2 sensor, LY379268, individual cell values (N=9)): 6.91 nM and 29 nM and 9.62 nM and 9.94 nM and 8.57 nM and 6.02 nM and 9.91 nM and 5.72 nM and 5.97 nM
EC50 ([3]; Mean half-maximum effective concentration (EC50), azi-ECL2 sensor, orthosteric agonist alone, nM for LY379268 (footnote)): 10.2 nM
Mean max response (normalized max ΔFRET) ([3]; azi-ECL2, agonist alone (1 mM glutamate, 100 μM DCG-IV, 20 μM LY379268, 100 μM APDC), normalized to 1 mM glutamate): 1.14
Normalized ΔFRET response, Mean (agonist DRC) ([3]; azi-ECL2, log[agonist] (M) -4.69897, normalized to 1 mM glutamate): 1.14
Normalized ΔFRET response, Mean (agonist DRC) ([3]; azi-ECL2, log[agonist] (M) -6, normalized to 1 mM glutamate): 1.108
Normalized ΔFRET response, Mean (agonist DRC) ([3]; azi-ECL2, log[agonist] (M) -7.1549, normalized to 1 mM glutamate): 1.024
Normalized ΔFRET response, Mean (agonist DRC) ([3]; azi-ECL2, log[agonist] (M) -7.52288, normalized to 1 mM glutamate): 0.9098
Normalized ΔFRET response, Mean (agonist DRC) ([3]; azi-ECL2, log[agonist] (M) -8, normalized to 1 mM glutamate): 0.6174
Normalized ΔFRET response, Mean (agonist DRC) ([3]; azi-ECL2, log[agonist] (M) -8.39794, normalized to 1 mM glutamate): 0.327
Normalized ΔFRET response, Mean (agonist DRC) ([3]; azi-ECL2, log[agonist] (M) -8.82391, normalized to 1 mM glutamate): 0.1901
Normalized ΔFRET response, Mean (agonist DRC) ([3]; azi-ECL2, log[agonist] (M) -9.52288, normalized to 1 mM glutamate): 0.0544
Normalized ΔFRET response, Mean (agonist DRC) ([3]; azi-ECL2, log[agonist] (M) -10, normalized to 1 mM glutamate): 0
Normalized ΔFRET response, Mean (agonist DRC) ([3]; azi-ECL2, log[agonist] (M) -10.699, normalized to 1 mM glutamate): 0
Normalized Max ΔFRET, Mean ([3]; azi-ECL2, 20μM agonist, mean of cells, normalized to 1mM glutamate): 114.025
Hill slope ([3]; azi-ECL2 sensor, orthosteric agonist alone): 1.03
Normalized Max Intracellular Ca2+ Response, individual experiments ([4]; 100 μM DCG-IV, 10 μM LY379268, 300 μM APDC, normalized to 1 mM glutamate, single replicate): 1.134 and 1.073 and 0.9696
Normalized Max Intracellular Ca2+ Response, mean ([4]; 1 mM Glu, 100 μM DCG-IV, 10 μM LY379268, 300 μM APDC, normalized to 1 mM glutamate): 1.059
Intracellular Ca2+ response, Mean ([4]; log[agonist] (M) -5): 1.059
Intracellular Ca2+ response ([4]; log[agonist] (M) -5): 1.059
Intracellular Ca2+ response, Mean ([4]; log[agonist] (M) -5.30103): 1.029
Intracellular Ca2+ response ([4]; log[agonist] (M) -5.30103): 1.067 and 1.001 and 1.018
Intracellular Ca2+ response, Mean ([4]; log[agonist] (M) -5.69897): 1.028
Intracellular Ca2+ response ([4]; log[agonist] (M) -5.69897): 0.9461 and 1.043 and 1.094
Intracellular Ca2+ response, Mean ([4]; log[agonist] (M) -6): 1.014
Intracellular Ca2+ response ([4]; log[agonist] (M) -6): 0.8943 and 1.055 and 1.093
Intracellular Ca2+ response, Mean ([4]; log[agonist] (M) -6.60206): 0.8831
Intracellular Ca2+ response ([4]; log[agonist] (M) -6.60206): 0.7751 and 0.9366 and 0.9375
Intracellular Ca2+ response, Mean ([4]; log[agonist] (M) -7.1549): 0.4554
Intracellular Ca2+ response ([4]; log[agonist] (M) -7.1549): 0.4206 and 0.5128 and 0.4328
Intracellular Ca2+ response, Mean ([4]; log[agonist] (M) -7.52288): 0.1775
Intracellular Ca2+ response ([4]; log[agonist] (M) -7.52288): 0.2096 and 0.1787 and 0.1441
Intracellular Ca2+ response, Mean ([4]; log[agonist] (M) -8): 0.00736
Intracellular Ca2+ response, Mean ([4]; log[agonist] (M) -8.39794): 0
Intracellular Ca2+ response ([4]; log[agonist] (M) -8.39794): 0
Intracellular Ca2+ response, Mean ([4]; log[agonist] (M) -8.82391): 0
Intracellular Ca2+ response ([4]; log[agonist] (M) -8.82391): 0
Intracellular Ca2+ response, Mean ([4]; log[agonist] (M) -9.52288): 0
Intracellular Ca2+ response ([4]; log[agonist] (M) -9.52288): 0
Intracellular Ca2+ response, Mean ([4]; log[agonist] (M) -10): 0
Intracellular Ca2+ response ([4]; log[agonist] (M) -10): 0
EC50 ([4]; one value per experiment, read-out: EC50, intracellular Ca2+ response): 84.9 nM and 98.9 nM and 71 nM
SMILES: N[C@@]1(C(=O)O)CO[C@H]2[C@H](C(=O)O)[C@H]21 [LY379268]
Live-cell FRET max response normalized to 1mM glutamate ([1]; SNAP-m2 sensor, LY379268, individual values (N=23)): 0.9967 and 0.9702 and 0.9948 and 1.036 and 0.962 and 0.9651 and 1.05 (3×) and 1.035 and 1.049 and 1.015 and 0.9906 and 1.057 and 1.051 and 0.9532 and 0.9752 and 0.9335 and 1.106 and 1.013 and 0.9759 and 0.9961 and 1.019
Live-cell FRET max response normalized to 1mM glutamate ([2]; azi-CRD sensor, LY379268, individual values (N=25)): 1.396 and 1.075 and 1.11 and 1.161 and 1.042 (2×) and 1.039 and 1.015 and 1.054 and 0.99 and 1.034 and 0.9879 and 0.9896 and 1.016 and 1.007 and 1.046 and 1.009 (2×) and 0.9955 and 1.0569 and 1.003 and 0.9915 and 1.157 and 1.205 and 1.123
Live-cell FRET max response normalized to 1mM glutamate ([3]; azi-ECL2 sensor, LY379268, individual values (N=22)): 0.9523 and 0.965 and 0.9976 and 1.05 and 1.063 and 1.017 and 1.16 and 1.1 and 1.538 and 1.083 and 1.3913 and 1.033 and 1.4421 and 1.297 and 1.208 and 1.454 and 1.223 and 1.042 and 0.9949 and 1.12 and 0.9608 and 0.9946
